# Results reported in US8420633B2 (Hoffmann-La Roche Inc., priority 2010, dated 2013).
# Where a name gives a salt, the structure may show the parent alone.
# Biological target: T1, human V1a receptor (Homo sapiens, UniProt P37288)
# T1 construct: expressed in transfected cells; host or cells: HEK293 cells, transiently transfected; membranes prepared
# Assay: human V1a receptor binding (3H-Vasopressin SPA, HEK293 membranes)
# Details: not given
# Method: The human V1a receptor was cloned by RT-PCR from total human liver RNA. The coding sequence was subcloned in an expression vector after sequencing to confirm the identity of the amplified sequence. […] Cell membranes were prepared from HEK293 cells transiently transfected with the expression vector and grown in 20 liter fermenters with the following protocol.
# 50 g of cells are resuspended in 30 ml freshly prepared ice cold Lysis buffer (50 mM HEPES, 1 mM EDTA, 10 mM magnesium dichloride adjusted to pH=7.4+complete cocktail of protease inhibitor (Roche Diagnostics)). Homogenized with Polytron for 1 min and sonicated on ice for 2×2 minutes at 80% intensity (Vibracell sonicator). The preparation is centrifuged 20 min at 500 g at 4° C., the pellet is discarded and the supernatant centrifuged 1 hour at 43,000 g at 4° C. (19,000 rpm). The pellet is resuspended in 12.5 ml Lysis buffer+12.5 ml sucrose 20% and homogenized using a Polytron for 1-2 min. The protein concentration is determined by the Bradford method and aliquots are stored at −80° C. until use. For binding studies 60 mg Yttrium silicate SPA beads (Amersham®) are mixed with an aliquot of membrane in binding buffer (50 mM Tris, 120 mM sodium chloride, 5 mM potassium chloride, 2 mM calcium dichloride, 10 mM magnesium dichloride) for 15 minutes with mixing. 50 μl of bead/membrane mixture is then added to each well of a 96 well plate, followed by 50 μl of 4 nM 3H-Vasopressin (American Radiolabeled Chemicals). For total binding measurement 100 μl of binding buffer are added to the respective wells, for non-specific binding 100 μl of 8.4 mM cold vasopressin and for compound testing 100 μl of a serial dilution of each compound in 2% dimethyl sulfoxide. The plate is incubated 1 h at room temperature, centrifuged 1 min at 1000 g and counted on a Packard Top-Count. Non-specific binding counts are subtracted from each well and data is normalized to the maximum specific binding set at 100%. To calculate an IC50 the curve is fitted using a non-linear regression model (XLfit) and the Ki is calculated using the Cheng-Prussoff equation.
# T1 sequence (P37288 whole entry): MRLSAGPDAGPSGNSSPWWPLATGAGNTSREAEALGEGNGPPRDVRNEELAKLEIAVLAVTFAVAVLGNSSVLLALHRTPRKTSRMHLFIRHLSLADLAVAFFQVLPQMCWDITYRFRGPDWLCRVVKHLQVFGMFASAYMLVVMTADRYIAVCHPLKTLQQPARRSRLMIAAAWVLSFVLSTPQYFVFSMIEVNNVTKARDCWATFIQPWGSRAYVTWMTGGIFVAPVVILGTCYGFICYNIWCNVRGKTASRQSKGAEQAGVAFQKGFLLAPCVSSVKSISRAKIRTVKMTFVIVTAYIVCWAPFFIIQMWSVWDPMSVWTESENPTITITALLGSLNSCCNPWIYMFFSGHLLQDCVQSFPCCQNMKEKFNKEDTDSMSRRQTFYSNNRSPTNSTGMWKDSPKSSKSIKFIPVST
row,SMILES,Ki [nM]
1,"CN1Cc2cc(Cl)ccc2-n2c(nnc2[C@H]2CC[C@H](c3ccccc3)CC2)C1 [Example 3, trans-8-Chloro-5-methyl-1-(4-phenyl-cyclohexyl)-5,6-dihydro-4H-2,3,5,10b-tetraaza-benzo[e]azulene]",0.794

# Same assay, conditions: 3H-Vasopressin displacement, membranes of HEK293 cells transiently transfected with human V1a; Ki from IC50 by Cheng-Prussoff; read-out: pKi (hV1a) (converted)
row,SMILES,Ki [nM]
1,"CC(C)(C)OC(=O)N1Cc2cc(Cl)ccc2-n2c(nnc2[C@H]2CC[C@H](c3ccccc3)CC2)C1 [Example 1, trans-8-Chloro-1-(4-phenyl-cyclohexyl)-4H,6H-2,3,5,10b-tetraaza-benzo[e]azulene-5-carboxylic acid tert-butyl ester]",6.46
2,"Clc1ccc2c(c1)CNCc1nnc([C@H]3CC[C@H](c4ccccc4)CC3)n1-2 [Example 2, trans-8-Chloro-1-(4-phenyl-cyclohexyl)-5,6-dihydro-4H-2,3,5,10b-tetraaza-benzo[e]azulene hydrochloride]",2.09
3,"Cc1ccccc1[C@H]1CC[C@@H](c2nnc3n2-c2ccc(Cl)cc2CN(C)C3)CC1 [Example 4, cis-8-Chloro-5-methyl-1-(4-o-tolyl-cyclohexyl)-5,6-dihydro-4H-2,3,5,10b-tetraaza-benzo[e]azulene]",16.2
4,"Cc1ccccc1[C@H]1CC[C@H](c2nnc3n2-c2ccc(Cl)cc2CN(C)C3)CC1 [Example 5, trans-8-Chloro-5-methyl-1-(4-o-tolyl-cyclohexyl)-5,6-dihydro-4H-2,3,5,10b-tetraaza-benzo[e]azulene]",4.27
5,"Cc1ccccc1[C@H]1CC[C@@H](c2nnc3n2-c2ccccc2CN(C)C3)CC1 [Example 6, cis-5-Methyl-1-(4-o-tolyl-cyclohexyl)-5,6-dihydro-4H-2,3,5,10b-tetraaza-benzo[e]azulene]",339
6,CC(C)(C)OC(=O)N1Cc2cc(Cl)ccc2-n2c(nnc2[C@H]2CC[C@@H](c3ccc(F)cc3)CC2)C1 [Example 7],52.5
7,"Fc1ccc([C@H]2CC[C@@H](c3nnc4n3-c3ccc(Cl)cc3CNC4)CC2)cc1 [Example 8, cis-8-Chloro-1-[4-(4-fluoro-phenyl)-cyclohexyl]-5,6-dihydro-4H-2,3,5,10b-tetraaza-benzo[e]azulene hydrochloride]",302
8,"CN1Cc2cc(Cl)ccc2-n2c(nnc2[C@H]2CC[C@@H](c3ccc(F)cc3)CC2)C1 [Example 9, cis-8-Chloro-1-[4-(4-fluoro-phenyl)-cyclohexyl]-5-methyl-5,6-dihydro-4H-2,3,5,10b-tetraaza-benzo[e]azulene]",30.2
9,CC(C)(C)OC(=O)N1Cc2cc(Cl)ccc2-n2c(nnc2[C@H]2CC[C@H](c3ccc(F)cc3)CC2)C1 [Example 10],4.68
10,"Fc1ccc([C@H]2CC[C@H](c3nnc4n3-c3ccc(Cl)cc3CNC4)CC2)cc1 [Example 11, trans-8-Chloro-1-[4-(4-fluoro-phenyl)-cyclohexyl]-5,6-dihydro-4H-2,3,5,10b-tetraaza-benzo[e]azulene hydrochloride]",6.31
11,"CN1Cc2cc(Cl)ccc2-n2c(nnc2[C@H]2CC[C@H](c3ccc(F)cc3)CC2)C1 [Example 12, trans-8-Chloro-1-[4-(4-fluoro-phenyl)-cyclohexyl]-5-methyl-5,6-dihydro-4H-2,3,5,10b-tetraaza-benzo[e]azulene]",2.19
12,"CC(C)(C)OC(=O)N1Cc2cc(Cl)ccc2-n2c(nnc2[C@H]2CC[C@H](c3cccc(OC(F)(F)F)c3)CC2)C1 [Example 13, trans-8-Chloro-1-[4-(3-trifluoromethoxy-phenyl)-cyclohexyl]-4H,6H-2,3,5,10b-tetraaza-benzo[e]azulene-5-carboxylic acid tert-butyl ester]",18.2
13,"FC(F)(F)Oc1cccc([C@H]2CC[C@H](c3nnc4n3-c3ccc(Cl)cc3CNC4)CC2)c1 [Example 14, trans-8-Chloro-1-[4-(3-trifluoromethoxy-phenyl)-cyclohexyl]-5,6-dihydro-4H-2,3,5,10b-tetraaza-benzo[e]azulene hydrochloride]",57.5
